# Measured values from patent US7659246B2, “Treatment of osteoarthritis” (Promics Pty Limited, priority 2002, dated 2010).
# Tests used:
# osteoarthritis [1] = assay: Clinical trial of PMX53 in arthritic dogs; assay type: in vivo, dog; settings: dogs with osteoarthritis; sc injection
# [2] = test system: antigen-induced arthritis of the knee joint; assay: Rat monoarticular antigen-induced arthritis; assay type: in vivo
# Description: Female Wistar rats (150-250 g) were obtained from the Central Animal Breeding House, University of Queensland. […] Each rat received a subcutaneous injection of this suspension (0.5 mL) on days 1 and 7. On day 12-28, rats were separated into separate cages, and body weight and food and water intake monitored daily. Rats received either ordinary tap water or drinking water containing AcF-[OPdChaWR] (1). […] On day 14, rats were anaesthetised and their hind limbs shaven. […] Rats were euthanased on day 28, and whole blood collected into an Eppendorf tube and allowed to spontaneously clot on ice. Blood samples were centrifuges (11,000 rpm×3 min) and serum collected and stored at −20° C. until analysis of serum cytokines using an ELISA. Each knee capsule was lavaged with 100 μL saline, and the total cell count determined using a haemocytometer. In addition, an aliquot of the knee joint lavage fluid was dropped onto a glass slide, and allowed to air dry. Once dry, cells were stained with a differential stain (Diff Quick) and a differential cell count was performed using a 40× dry lens microscope. The remaining lavage fluids from each joint were stored at −20° C. until later analysis of intra-articular cytokine levels using an ELISA. Each knee joint was severed, trimmed leaving only the area of interest and the skin was split with a scalpel blade. Knee samples were stored in 10% buffered formalin for >10 d. Knees were then rinsed with distilled water and placed in a saturated solution of EDTA solution for 21 d for decalcification before being embedded in paraffin wax. Knee tissue samples were prepared using standard histological techniques as described in Example 1, and stained using an haematoxylin and eosin stain. Histological slides were analysed in a blind fashion. […] In no samples was there evidence of significant bone erosion. Samples were thawed on the day of ELISA analysis, and serum or intra-articular lavage fluid TNFα and IL-6 concentrations were determined from a standard curve, using an ELISA as described in Example 1.
# osteoarthritis [3] = assay: Clinical trial of PMX53 in arthritic dogs; assay type: in vivo, dog
# Source text: A single oral dose of the drug appears to be effective for at least 3-4 days, even in the most severe case. […] The individual cases are listed below.
# induced osteoarthritis = assay: Induced osteoarthritis in dogs (cruciate ligament transection); assay type: in vivo, dog
# Description: Four healthy dogs were obtained from a group of pound dogs destined for euthanasia. The dogs were acclimatised to the experimental canine ward for 7 days before the experiment commenced. Dogs were housed individually and fed on a mixture of dry dog food, canned dog food and occasional raw bones. They were walked for 10 minutes twice daily throughout the trial. The dogs were of age and sex as follows:
# PMX53 was synthesised by the Institute of Molecular Bioscience at the University of Queensland. The drug was dissolved in 30% polyethylene glycol 400 (PEG 400) in normal saline. The solution was made to a concentration of 3 mg/ml. The placebo vehicle was 30% PEG 400 in saline. All treatments were sterilised by filtration and stored at 4° C. The dogs were given the drug or placebo at a dose rate of 1 ml/10 kg body weight. The treatments were assigned to the dogs in a random fashion. The drug containers were marked so that the attendants who scored the gait were unaware of the treatment given to each dog.
# The cruciate ligament of the left stifle (knee) joint was transected surgically by an experienced specialist surgeon. The incision in the skin was approximately 2 centimeters long. The dogs were given postoperative pain relief, including epidural analgesia and opioids. At 24 hours after the surgery all dogs were limping. No supplementary analgesic therapy was deemed necessary after day 1. All dogs tolerated the procedure very well.
# The drug was given as a subcutaneous injection (0.3 mg/kg) into the loose skin on the dorsum of the neck once daily. […] Dogs were assessed twice daily for lameness while they were walked. The scoring was done by at least two people.
# dermal Arthus reaction = assay: Reverse passive dermal Arthus reaction in the rat; assay type: in vivo; settings: intravenous, oral and topical pretreatment
# [4] = dogs, day 28, compared to arthritic controls, FIG. 7
smiles,measurement,setting,value
"CC(=O)N[C@@H](Cc1ccccc1)C(=O)N[C@H]1CCCNC(=O)[C@H](CCCNC(=N)N)NC(=O)[C@H](Cc2c[nH]c3ccccc23)NC(=O)[C@@H](CC2CCCCC2)NC(=O)[C@@H]2CCCN2C1=O [PMX53, AcF-[OPdChaWR]]",duration of effects of one injection,osteoarthritis [1],last for weeks
same,right knee joint IL-6 level in joint lavage,[2]; FIG. 5,inhibition
same,right knee joint TNFα level in joint lavage,[2]; FIG. 5,inhibition
same,arthritic right knee joint swelling,"[2]; given orally on Days -2 to +14, FIG. 4",inhibition of arthritic right knee joint swelling
same,joint pain on manipulation,osteoarthritis [3]; Case #1,no joint pain on manipulation
same,morning stiffness,osteoarthritis [3]; Case #1,no morning stiffness
same,range of joint movement,osteoarthritis [3]; Case #1,not improved
same,time to very noticeable improvement after injection,"osteoarthritis [3]; Case #1, 0.3 mg/kg subcutaneously",≤ 24 h
same,improvement after treatment,"osteoarthritis [3]; Case #1, 1 mg/kg oral once daily, then 0.3 mg/kg sc once daily",marked
same,side effects,"osteoarthritis [3]; Case #1, injections for 12 months",no apparent side effects
same,attitude (owner report),osteoarthritis [3]; Case #2,noticeable improvement in attitude
same,lameness,"osteoarthritis [3]; Case #2, 1 mg/kg orally 4 weeks, then 0.3 mg/kg sc once daily",did not improve
same,response to therapy,"osteoarthritis [3]; Case #3, 1 mg/kg per day orally, then 0.3 mg/kg sc as required, no NSAIDs",responded very well
same,side effects,"osteoarthritis [3]; Case #3, after 9 months of treatment",no side effects
same,control of clinical signs,"osteoarthritis [3]; Case #4 (rheumatoid arthritis), 0.3 mg/kg SC once a week alone",did not completely control the clinical signs
same,clinical result in combination with prednisolone,"osteoarthritis [3]; Case #4, PMX53 once a week with prednisolone 2.5 mg PO once every second day",excellent results
same,duration of effect of a single oral dose,"osteoarthritis [3]; dogs with osteoarthritis, oral",3 to 4 days
same,side effects,"osteoarthritis [3]; dogs, up to 12 months treatment",No side effects
same,cartilage erosion,"induced osteoarthritis; dog #2 (drug treated), also seen in placebo dog #4, day 28",mild cartilage erosion
same,time of treatment to improvement in the degree of lameness,"induced osteoarthritis; dogs n=2, 0.3 mg/kg sc once daily, placebo 10-13 days, FIG. 6b",4 to 6 days
same,clinical impression of ability to walk,"induced osteoarthritis; dogs, 0.3 mg/kg sc once daily",clearly improved the ability of the dogs to walk
same,gait at the end of the trial,"induced osteoarthritis; dogs, 0.3 mg/kg sc once daily, day 28",relatively sound
same,blood biochemistry and haematology,"induced osteoarthritis; dogs, before surgery and at day 28",No abnormalities were detected
same,fibrosis of the joint (histopathology),induced osteoarthritis; [4],reduced fibrosis
same,thickening of the synovial membrane (histopathology),induced osteoarthritis; [4],reduced thickening of the synovial membrane
same,discomfort when injected,"induced osteoarthritis; dogs, sc in 30% PEG 400 in saline, drug and placebo alike",mild discomfort
same,site of injection at post mortem,"induced osteoarthritis; dogs, sc, dorsum of the neck, day 28",no abnormalities
same,recovery from surgery,"induced osteoarthritis; dogs, versus placebo-treated dogs",recovered from surgery more rapidly
same,rise in circulating TNFα associated with a dermal Arthus reaction,"dermal Arthus reaction; rat serum, FIG. 2",inhibition of the rise in circulating TNFα
same,vascular leakage associated with a dermal Arthus reaction,"dermal Arthus reaction; rat, Evans blue absorbance at 650 nm, FIG. 1",inhibition of the vascular leakage
